Test results published in patent US20210254000A1, “PROCESS FOR PRODUCING A T CELL COMPOSITION” (Juno Therapeutics, Inc., priority 2017, published 2021).
Read-outs that look alike come from different tables or passages of the source.

What was measured:
[1] = test system: CD8+ and CD4+ T cells of anti-CD19 CAR-T cell compositions; experiment: Intracellular polyfunctional cytokine profiles; type: cell-based, human; conditions: cells expanded with 200 nM PI-103 or 1 μM Compound 63; PMA/Ionomycin + Golgi Inhibitor or Golgi Inhibitor alone, 5 hours
Procedure: Separate compositions of CD4+ and CD8+ cells were isolated from three human donors, activated and transduced with a viral vector encoding an anti-CD19 CAR substantially as described in Example 2. After transduction, the CD4+ and CD8+ T cells derived from each donor were separately incubated for 8 days in the presence of a mTOR kinase inhibitor to expand T cells substantially as described in Example 2, except in the presence of 200 nM PI-103, 1 μM Compound 63, or with DMSO vehicle or media only controls. CD4+ and CD8+ T cells from each donor were then separately harvested, formulated, and cryofrozen. The cryofrozen engineered CD4+ and CD8+ T cells were thawed, washed to remove compound, and cells from the same donor were then combined at a ratio of 1:1 viable CD4+/CAR+ to viable CD8+/CAR+ T cells to produce an expanded anti-CD19 CAR-T cell composition containing CD4+ and CD8+ T cells. Functional activities of the generated anti-CD19 CAR-T cell compositions were assessed.
Intracellular cytokines, CD107a, IFN-gamma ([…]), IL-2, IL-17a, and TNF-alpha (TNFα), were assessed in co-cultured T cells that were split into two groups and further incubated for 5 hours with PMA/Ionomycin and a Golgi Inhibitor or a Golgi Inhibitor alone. The intracellular cytokine accumulation was expressed as a fold change in frequency of cytokine positive cells from media-only controls. […]

Ribo-S6 phosphorylation = experiment: Inhibition of ribosomal protein S6 phosphorylation in stimulated primary human T cells (flow cytometry); type: cell-based
Procedure: The dose effect of exemplary mTOR kinase inhibitors in primary human T cells was assessed by monitoring inhibition of ribosomal protein S6.
CD4+ and CD8+ T cells were isolated by immunoaffinity-based enrichment from leukapheresis samples from human donor subjects. Isolated CD4+ and CD8+ T cells were mixed 1:1 and stimulated with anti-CD3/anti-CD28 magnetic beads in the presence of increasing concentrations of an mTOR kinase inhibitor, PI-103, Compound 155, Compound 63, or Compound 246. The T cell cultures were incubated overnight (approximately 16 hr) at 37° C. Following incubation in the presence of PI-103, Compound 155, Compound 63, or Compound 246, T cells were assessed for intracellular S6 phosphorylation and co-stained for surface expression of CD4 or CD8, by flow cytometry.

Raji cells = experiment: Raji tumor xenograft model, CAR-T cells expanded with inhibitor; type: in vivo, nod scid gamma (NSG) immunodeficient mice; conditions: for tumor burden (bioluminescence) compared with DMSO vehicle: low (0.25×10^6) or high (1.0×10^6) dose of CAR+ T cells expanded with the inhibitor; for survival compared to mice administered CAR-T cells expanded with DMSO vehicle: low or high dose of CAR-T cells expanded with the inhibitor
Procedure: Anti-tumor effects of the generated anti-CD19 CAR-T cell compositions, generated by expansion in the presence of PI-103, Compound 63 or media only as described in Example 2, was assessed. The tumor xenograft mouse model was generated by implanting nod scid gamma (NSG) immunodeficient mice with 0.5×10^6 Raji cells (an immortalized human B lymphocyte tumor cell line that expresses CD19), which were allowed to engraft. The Raji cells were transfected with firefly luciferase to facilitate detection by bioluminescence imaging. After seven days, mice either received no treatment, DMSO vehicle, or a low dose (0.25×10^6) or a high dose (1.0×10^6) dose of CAR+ T cells of the generated anti-CD19 CAR-T cell compositions. Tumor burden was assessed by bioluminescence weekly or every 10 days.

[2] = test system: CAR-T cells incubated with CD19-expressing target cells; experiment: Intracellular and secreted cytokines of CAR-T cells (mixed CD4+/CD8+ process); type: cell-based, human; conditions: for levels of secreted cytokines (IL-2, TNF-alpha, IFN-gamma) in supernatants: 20 hours with CD19-antigen expressing cells, ELISA; for polyfunctional effector cytokine profiles (IL-2, TNF-alpha, IFN-gamma) compared to DMSO: CD8+ and CD4+ subsets, primary or secondary stimulation, golgi inhibitor 5 hours
Procedure: Separate compositions of CD4+ and CD8+ cells were selected from isolated PBMCs from a leukapheresis sample from the same human donor by immunoaffinity based selection, and the selected cell compositions were cryofrozen. The separate compositions of CD4+ and CD8+ T cells were subsequently thawed and mixed at a ratio of 1:1 of viable CD4+ T cells to viable CD8+ T cells. In this study, the mixed CD4+ and CD8+ cell populations were incubated in the presence of Compound 63, PI103 or no inhibitor (DMSO vehicle control) beginning at the initiation of stimulation. In more detail, the mixed CD4+ and CD8+ T cell composition was stimulated (in the presence or absence of an inhibitor, as indicated) in the presence of paramagnetic polystyrene-coated beads with attached anti-CD3 and anti-CD28 antibodies for between 18 to 30 hours, and were then transduced with a lentiviral vector encoding an anti-CD19 CAR. The CAR contained an scFv antigen-binding domain specific for CD19 (derived from FMC63), a CD28 transmembrane region, a 4-1BB costimulatory signaling region, and a CD3-zeta derived intracellular signaling domain. The cells were then expanded in the presence of cytokines typically for approximately 6-7 days. Beginning with stimulation and for the duration of the process, the media contained DMSO (vehicle control), 2 μM PI103 or 1 μM Compound 63. The vehicle control contained DMSO at a volume to match that in the mTOR inhibitor-treated samples. Expanded cells were cryopreserved. For assessment, the cryopreserved CAR-T cells were thawed and washed prior to assessment in assay media without supportive cytokines and without inhibitor or vehicle.
Intracellular cytokine levels were monitored in cells of co-cultures incubated with freshly thawed generated CAR-T cells or CAR-T cells after secondary restimulation with CD19-expressing target cells. CAR-T cells were incubated with target-expressing cells in the presence of golgi inhibitor for 5 hours. Intracellular expression of IL-2, TNF-alpha and IFN-gamma was determined and a polyfunctional score was calculated by gating for cumulative CAR-T cells positive for IL-2 and any combination of IFN-gamma and TNF-alpha. […] Generated CAR-T cells were also cultured with CD19-antigen expressing cells for 20 hours and levels of IL-2, TNF-alpha and IFN-gamma were assessed in cell culture supernatants by ELISA.

[3] = Homo sapiens, T-cell, CD8+ T cells, read-out: IC50 for inhibition of Ribo-S6 phosphorylation, CD8
[4] = Homo sapiens, CD4+ T cells, read-out: IC50 for inhibition of Ribo-S6 phosphorylation, CD4
[5] = T-cell, primary human CD4+/CD8+ T cells mixed 1:1, anti-CD3/anti-CD28 beads, approximately 16 hr, read-out: IC50 for the inhibition of S6 phosphorylation in the T cells

SMILES | frequency of polyfunctional cytokine profiles in CD8+ and CD4+ T cells vs control cells [1] | IC50 (Ribo-S6 phosphorylation; [3]) [nM] | IC50 (Ribo-S6 phosphorylation; [4]) [nM] | IC50 (Ribo-S6 phosphorylation; [5]) [nM] | survival (Raji cells; high dose of CAR-T cells expanded with the inhibitor, for at least 80 days following tumor cell implant) [%] | tumor burden (bioluminescence) compared with DMSO vehicle (Raji cells) | survival compared to mice administered CAR-T cells expanded with DMSO vehicle (Raji cells) | levels of secreted cytokines (IL-2, TNF-alpha, IFN-gamma) in supernatants [2] | polyfunctional effector cytokine profiles (IL-2, TNF-alpha, IFN-gamma) compared to DMSO [2]
CC(C)c1ccccc1-n1c(=O)[nH]c2c(C(N)=O)nc(-c3cccc(O)c3)nc21 [Compound 63, 2-(3-Hydroxyphenyl)-9-(2-isopropylphenyl)-8-oxo-8,9-dihydro-7H-purine-6-carboxamide] | increased frequency of certain polyfunctional cytokine profiles | 503 | 468 | ~500 | 100 | Reduced tumor burden | substantially improved survival | increased levels of secreted cytokines | improved polyfunctional effector cytokine profiles
Oc1cccc(-c2nc(N3CCOCC3)c3oc4ncccc4c3n2)c1 [PI-103, reference compound] | increased frequency of certain polyfunctional cytokine profiles | 88.4 | 121 | ~100 | – | Reduced tumor burden | substantially improved survival | increased levels of secreted cytokines | improved polyfunctional effector cytokine profiles
